# Laboratory results taken from patent publication US7374890B2, “Methods for identifying compounds that modulate ΔTRα2 activity” (University of Massachusetts, priority 2000, dated 2008).
# How the values were obtained:
# [1] = target: binding of p29^GFP vesicles to F-actin; experiment: modified in vitro actin binding assay with p29^GFP-labeled vesicles; type: biochemical, rat; conditions: 0-100 nM, 20 minutes at 37° C.; read-out: EC50, increase in quantity of p29^GFP bound to F-actin
# Protocol: To define the specific region(s) of the myosin V tail that interact with the p29 vesicle, a series of deletion mutations were created based on the dominant negative effect of exogenous myosin V tail on p29 vesicle binding. Competition analysis of the myosin V deletion mutations on T4-dependent binding of p29 vesicles to F-actin was performed using a modified in vitro assay in which a GFP-tagged p29 fusion protein (p29^GFP) replaced the radioaffinity labeled native p29 (Farwell et al., 1990, J. Biol. Chem. 265:18546-18553; Farwell et al., 1993, J. Biol. Chem. 268:5055-5062). This allowed direct evaluation of the binding of fluorescent vesicles to F-actin without affinity radiolabeling of the p29 and subsequent SDS-PAGE analysis.
# Specific fluorescence at 510 nm (excitation, 488 nm) was then determined in the resuspended Triton-insoluble pellets.
# To determine if the myosin V tail could be captured by the p29^GFP vesicle, an exogenous myosin V^tail was introduced into astrocytes constitutively expressing p29^GFP by infection with Ad5-ΔMyo V^tail virus particles and examined the effects of T4 on the binding of the myosin V^tail to immunopurified p29^GFP vesicles. Astrocytes expressing p29^GFP were grown in serum-free media and treated for 16 hours with 1 mM bt2cAMP and 100 nM hydrocortisone. A separate pool of astrocytes was treated in serum-free media supplemented with 10 μM retinoic acid. Cells were collected by scraping, and lysed by two freeze-thaw cycles. […] Triton-soluble (vesicle) and Triton-insoluble (F-actin) fractions were separated by microflige centrifugation. Triton pellets were resuspended in 300 μl of PBS and fluorescence at 510 nm (excitation 488 nm) determined and relative fluorescence was reported as arbitrary units. Cells were treated with 10 nM T4 for twenty minutes and a Triton-soluble supernatant was prepared. Vesicles containing the p29^GFP were immunoprecipitated by anti-GFP IgG (2 μg/ml) and protein in the immunoprecipitates were resolved by SDS-PAGE. Immunoblot analysis of vesicle-associated myosin V was performed using the anti-myosin V antibody directed against the C-terminus.
# The quantity of each mutant protein synthesized was determined by [^35 S]-methionine incorporation. Astrocytes expressing p29^GFP were grown in serum-free media and treated for 16 hours with […] bt2cAMP and 100 nM hydrocortisone. p29^GFP V-lysate and F-lysate were prepared as described herein. 100 μg aliquots of p29^GFP V-lysate and F-lysate were pre-incubated, in triplicate, for 20 minutes at 37° C. in the presence of individual Δ myosin V mutant proteins (˜2-3 pmol polypeptide/50 μl mixture) were added to the actin-binding assay and pre-incubated for 20 minutes at 37° C. T4 (10 nM) was then added, the mixtures incubated for 20 minutes at 37° C., and F-actin bound, fluorescent p29^GFP vesicles were then isolated in the Triton-insoluble pellet.
# V lysates prepared from astrocytes over-expressing p29^GFP were pre-incubated for 30 minutes at room temperature with antisera raised against ΔTRα2, ΔTRα1, the C-terminus of MyoV (encoded by MyoV^tail, FIG. 5), the coiled-coil region of MyoV (encoded by MyoV^coil-coil, FIG. 5) and GFP (green fluorescent protein). T4 (10 nM) and actin fiber-containing F-lysate was then added, the mixtures incubated at 37° C. for 20 minutes, and the Triton-insoluble fraction isolated by centrifugation.
# [2] = tested on: binding of p29 vesicles to F-actin; experiment: in vitro actin binding assay with BrAc[125I]T4-labeled p29 vesicles; type: biochemical, rat; conditions: 10 nM hormone, 20 minutes at 37° C.
# Protocol: Actin binding of the p29 vesicles was then initiated by addition of 10 nM T4, and the Triton-insoluble (F-actin bound) pellet was separated from the Triton-soluble (vesicle) fraction.
# An in vitro binding assay was developed whose principle is based on the hormone dependent redistribution of affinity labeled p29 between the Triton-soluble (vesicle pool) and Triton-insoluble (F-actin cytoskeleton) fractions. The assay was used to examine the hormone dependent relationship between the p29-containing endosome and the F-actin cytoskeleton. Two different pools of astrocytes were prepared. […] The other astrocyte pool was used to prepare affinity BrAc [^125 I]T4-labeled p29 vesicles from thyroid-deficient cells (V-lysate; Farwell et al. 1990, J. Biol. Chem. 265:18546-18553). V-lysates were prepared from cAMP-stimulated astrocytes grown in serum-free media that were labeled with 2 nM BrAc[^125 I]T4 as described in Farwell et al. (1990, J. Biol. Chem. 265:18546-18553). […]
# After the incubation, the mixtures were chilled on ice for 2 minutes, then Triton X-100® (0.5% v/v, final) was added and the soluble (Triton supernatant, vesicles) and insoluble (Triton pellet, F-actin) fractions were separated by microfuge centrifugation at 4° C. for 5 minutes. The distribution of [^125 I]-labeled p29 was then determined by SDS PAGE analysis.
# [3] = tested on: cerebellar granule neurons; experiment: release of FM1-43-loaded synaptic vesicles from cerebellar granule neurons under continuous stimulus; type: cell-based, rat; conditions: 10 nM hormone; continuous stimulation by 50 mM KCl; vs no hormone controls; first order kinetics assumed
# Protocol: Granule neurons were grown for 7 days and rendered hormone free by growth in serum-free medium as detailed above. Coverslips were then placed in a perfusion chamber, mounted on the stage of a laser scanning confocal microscope and perfused at 1 ml/min at 25° C. with perfusion buffer (119 mM NaCl, 2.5 mM KCl, 2 mM CaCl2, 2 mM MgCl2, 25 mM HEPES (pH 7.4), 30 mM glucose, and […] AP-5). The effects of different hormones on synaptic vesicle trafficking were then determined. […] Depolarizing KCl was then removed from the perfusion buffer and the cells were exposed to FM1-43 for an additional 30 seconds to insure complete loading of recycling synaptic vesicles. Loaded cells were then washed free of dye and the cells were perfused for ten minutes at rest.
# Images of a single field of neuronal fibers were then taken immediately before adding a second depolarizing solution (perfusion buffer containing 50 mM KCl) and at one and two minutes after beginning the continuous stimulation by 50 mM KCl. Thirty to forty-five individual FM1-43 labeled nerve terminals were identified in the baseline images (taken prior to depolarization) and the change in fluorescence (DF) for each nerve terminal determined at the one and two minute time points. FIGS. 11A and 11B show the results of analysis of the hormone specificity of synaptic vesicle trafficking (FIG. 11A) and the influence of individual myo5a mutants (FIG. 11B) on synaptic vesicle transport in granule neurons.
# To evaluate the role of myo5a in synaptic vesicle transport, three different myo5a constructs were introduced into the neurons by replication-deficient adenoviral vectors (Δmyo5a^tail(MyoV^tail), Δmyo5a^c-term(MyoV^1830)and ΔMyo5a^CC(MyoV^cc) see FIG. 5) as described above. […] Neurons were infected with purified Ad5-constructs (MOI=10) 48 hours prior to the synaptic vesicle trafficking study, and allowed to recover in hormone (T4) supplemented medium. […] This modest influence of the VBD mutant on synaptic vesicle retention is likely to be due to the loss of the kinesin-binding domain that limits its delivery to nerve terminals.
# D2 activity = conditions: in astrocytes; cited from earlier work
smiles,measurement,setting,value
"N[C@@H](Cc1cc(I)c(Oc2cc(I)c(O)c(I)c2)c(I)c1)C(=O)O [T4, thyroxine]",EC50,[1],~0.5 nM
same,"radiolabeled p29 bound to the Triton insoluble, F-actin fraction",[2],more than 70%
same,decrease of the rate of FM1-43 release,[3],75%
same,quantity of D2 activity,D2 activity,decreases the quantity of D2 activity
